Source: patent US6537948B1, “Uracil compounds and use thereof” (Sumitomo Chemical Company, Limited, priority 2000, dated 2003)
Each block holds one compound with its values, some of them ahead of it.

What was measured:
[1] = test system: velvetleaf (Abutilon theophrasti); assay: Test Example 4: soil surface treatment of field; type: in vivo; settings: soil surface spray, dosage 250 g/ha, 25 days after application
From the text: (§1) A plastic pot having longer side of 32 cm, shorter side of 22 cm and depth of 8 cm was filled with soil and then seeded with hemp sesbania (Sesbania exaltata), black nightshade (Solanum nigrum), velvetleaf (Abutilon theophrasti), pale smartweed (Polygonum lapathifolium), common lambsquarters (Chenopodium album) and giant foxtail (Setaria faberi). Then, the present compound 1-12 was formulated into an emulsifiable concentrate according to Formulation Example 2 and then diluted to the prescribed amount with water, and the dilution was uniformly sprayed over the surface of the soil with a sprayer at a rate of 1000 liters per hectare. After the application, the test plants were grown in the greenhouse for 25 days, and the herbicidal activity was examined.

[2] = test system: black nightshade (Solanum nigrum); assay: Test Example 4: soil surface treatment of field; type: in vivo; settings: soil surface spray, dosage 250 g/ha, 25 days after application
From the text: as §1

[3] = test system: common lambsquarters (Chenopodium album); assay: Test Example 4: soil surface treatment of field; type: in vivo; settings: soil surface spray, dosage 250 g/ha, 25 days after application
From the text: as §1

[4] = test system: hemp sesbania (Sesbania exaltata); assay: Test Example 4: soil surface treatment of field; type: in vivo; settings: soil surface spray, dosage 250 g/ha, 25 days after application
From the text: as §1

[5] = test system: pale smartweed (Polygonum lapathifolium); assay: Test Example 4: soil surface treatment of field; type: in vivo; settings: soil surface spray, dosage 250 g/ha, 25 days after application
From the text: as §1

[6] = test system: giant foxtail (Setaria faberi); assay: Test Example 4: soil surface treatment of field; type: in vivo; settings: soil surface spray, dosage 250 g/ha, 25 days after application
From the text: as §1

redroot pigweed [7] = assay: Test Example 3: foliar treatment of field; type: in vivo, Amaranthus retroflexus; settings: foliar spray, dosage 16 g/ha, 25 days after application
Procedure: (§2) A plastic pot having longer side of 27 cm, shorter side of 20 cm and depth of 7.5 cm was filled with soil and then seeded with ivyleaf morningglory (Ipomoea hederacea) and common cocklebur (Xanthium pensylvanicum). These test plants were grown in a greenhouse for 10 days. Then, therein, transplanted were common lambsquarters (Chenopodium album), redroot pigweed and giant foxtail (Setaria faberi) which had been seeded and grown for 14 days in a green house in advance. The test plants were further grown in the greenhouse for 8 days. After then, present compound 1-12 was formulated into an emulsifiable concentrate according to Formulation Example 2 and then diluted to the prescribed amount with water containing a spreading agent and the dilution was uniformly sprayed over the foliage of the test plants with a sprayer at a rate of 1000 liters per hectare. After the application, the test plants were grown in the greenhouse for 25 days, and the herbicidal activity was examined.

[8] = test system: ivyleaf morningglory (Ipomoea hederacea); assay: Test Example 3: foliar treatment of field; type: in vivo; settings: foliar spray, dosage 16 g/ha, 25 days after application
Procedure: as §2

[9] = test system: common cocklebur (Xanthium pensylvanicum); assay: Test Example 3: foliar treatment of field; type: in vivo; settings: foliar spray, dosage 16 g/ha, 25 days after application
Procedure: as §2

[10] = test system: common lambsquarters (Chenopodium album); assay: Test Example 3: foliar treatment of field; type: in vivo; settings: foliar spray, dosage 16 g/ha, 25 days after application
Procedure: as §2

[11] = test system: giant foxtail (Setaria faberi); assay: Test Example 3: foliar treatment of field; type: in vivo; settings: foliar spray, dosage 16 g/ha, 25 days after application
Procedure: as §2

redroot pigweed [12] = assay: Test Example 5: foliar treatment of field; type: in vivo, Amaranthus retroflexus; settings: foliar spray, dosage 16 g/ha, 6 days after application
Procedure: (§3) A plastic pot having longer side of 27 cm, shorter side of 20 cm and depth of 7.5 cm was filled with soil and then seeded with ivyleaf morningglory (Ipomoea hederacea) and common cocklebur (Xanthium pensylvanicum). Three days after, barnyardgrass (Echinochloa crus-galli) was seeded therein and grown for 7 days in a greenhouse. Then, therein, transplanted were common lambsquarters (Chenopodium album), redroot pigweed and giant foxtail (Setaria faberi) which had been seeded and grown for 14 days in a green house in advance. The test plants were further grown in the greenhouse for 8 days. After then, present compound 7-7 was formulated into an emulsifiable concentrate according to Formulation Example 2 and then diluted to the prescribed amount with water containing a spreading agent and the dilution was uniformly sprayed over the foliage of the test plants with a sprayer at a rate of 1000 liters per hectare. After the application, the test plants were grown in the greenhouse for 6 days, and the herbicidal activity was examined.

[13] = test system: ivyleaf morningglory (Ipomoea hederacea); assay: Test Example 5: foliar treatment of field; type: in vivo; settings: foliar spray, dosage 16 g/ha, 6 days after application
Procedure: as §3

[14] = test system: common cocklebur (Xanthium pensylvanicum); assay: Test Example 5: foliar treatment of field; type: in vivo; settings: foliar spray, dosage 16 g/ha, 6 days after application
Procedure: as §3

[15] = test system: common lambsquarters (Chenopodium album); assay: Test Example 5: foliar treatment of field; type: in vivo; settings: foliar spray, dosage 16 g/ha, 6 days after application
Procedure: as §3

[16] = test system: barnyardgrass (Echinochloa crus-galli); assay: Test Example 5: foliar treatment of field; type: in vivo; settings: foliar spray, dosage 16 g/ha, 6 days after application
Procedure: as §3

[17] = test system: giant foxtail (Setaria faberi); assay: Test Example 5: foliar treatment of field; type: in vivo; settings: foliar spray, dosage 16 g/ha, 6 days after application
Procedure: as §3

SMILES: COC(=O)C(C)Oc1cnc(Oc2cc(-n3c(=O)cc(C(F)(F)F)n(C)c3=O)c(F)cc2Cl)nc1 (stereo not drawn) [Compound 1-12, methyl 2-([2-{2-chloro-4-fluoro-5-[3-methyl-2,6-dioxo-4-(trifluoromethyl)-1,2,3,6-tetrahydropyrimidin-1-yl]phenoxy}pyrimidin-5-yl]oxy)propionate]
- growth of velvetleaf (herbicidal activity) [1]: completely controlled
- growth of black nightshade (herbicidal activity) [2]: completely controlled
- growth of common lambsquarters (herbicidal activity) [3]: completely controlled
- growth of hemp sesbania (herbicidal activity) [4]: completely controlled
- growth of pale smartweed (herbicidal activity) [5]: completely controlled
- growth of giant foxtail (herbicidal activity) [6]: completely controlled
- growth of redroot pigweed (herbicidal activity) (redroot pigweed [7]): completely controlled
- growth of ivyleaf morningglory (herbicidal activity) [8]: completely controlled
- growth of common cocklebur (herbicidal activity) [9]: completely controlled
- growth of common lambsquarters (herbicidal activity) [10]: completely controlled
- growth of giant foxtail (herbicidal activity) [11]: completely controlled

- melting point: 52.2 °C
SMILES: COC(=O)COc1ncccc1Oc1cc(-n2c(=O)cc(C(F)(F)F)n(C)c2=O)c(F)cc1Cl [Compound 7-7, 3-{2-chloro-4-fluoro-5-[3-methyl-2,6-dioxo-4-(trifluoromethyl)-1,2,3,6-tetrahydropyrimidin-1-yl]phenoxy}-2-(methoxycarbonyl)methoxypyridine]
- growth of redroot pigweed (herbicidal activity) (redroot pigweed [12]): completely controlled
- growth of ivyleaf morningglory (herbicidal activity) [13]: completely controlled
- growth of common cocklebur (herbicidal activity) [14]: completely controlled
- growth of common lambsquarters (herbicidal activity) [15]: completely controlled
- growth of barnyardgrass (herbicidal activity) [16]: completely controlled
- growth of giant foxtail (herbicidal activity) [17]: completely controlled
